Each structure is given as a SMILES string. Counter-ions that a name gives are not always drawn.

Data set [1] can be described thus: CLint estimates using human liver microsomes. Conditions: pH 7.4, read-out: HLM activity (HLM CLint). The format is in vitro ADME. Here is the method:
Method for the Determination of CLint Estimates Using Human Liver Microsomes
Test compounds (final concentration=1 μM; final DMSO concentration=0.1%) were incubated in 0.1M phosphate buffer pH 7.4 with human liver microsomes (0.5 mg of protein/mL) at 37° C. Reactions were started by addition of NADPH in 0.1M phosphate buffer pH 7.4 (final concentration 1 mM). 40 μL aliquots were removed at 2, 5, 10, 15, 20, 30, 40 and 50 min. Reactions were quenched in 80 μL of ice-cold methanol. Samples were subsequently frozen overnight then centrifuged at 3500 rpm for 20 min at 4° C. The supernatants were removed and transferred into analytical plates and analysed by LC/MS/MS.
All samples were analysed on a Waters Acquity I-Class coupled to a Waters Xevo TQD mass spectrometer. A Waters BEH C18 2.1×50 mm 1.7 μm column was used and mobile phases were water and methanol containing 0.1% formic acid as modifier. Analysis was by multiple reaction monitoring and conditions were optimised for each test compound.
From a plot of ln peak area against time, the gradient of the line is determined. Subsequently, half-life and intrinsic clearance are calculated using the following equations.

Data set [2] in a line: Oral bioavailability in rat. Conditions: in vivo. The text has this:
Compounds of the present invention are orally bioavailable.

Data set [3] in a line: Human hepatocyte assay CLint. Type of data set: in vitro ADME. Conditions: hepatocytes. Here is the method:
(§1) Compounds of the present invention have good stability in human and/or rat hepatocyte incubations. In particular, representative examples 7, 8, 13, 18, 20 have CLint of <20 μL/min/10^6 cells in a human hepatocyte assay and/or <40 μL/min/10^6 cells in a rat hepatocyte assay.

Data set [4] concerns the target human ether a go-go related gene (hERG) K+ channel (Homo sapiens (Human), UniProt Q12809). Nature of the data set: hERG inhibition, IonWorks patch clamp electrophysiology. As to conditions: 8-point curve from 11 μM. The format is cell-based. Here is the method:
Compounds were tested for inhibition of the human ether a go-go related gene (hERG) K^+ channel using IonWorks patch clamp electrophysiology at Essen BioScience.
In general terms: The hERG channel carries a current that helps repolarise heart muscle cells.

Data set [5] addresses CYP2D6 (Homo sapiens (Human), UniProt P10635). Nature of the data set: Time dependent CYP inhibition: CYP2D6. The format is in vitro ADME. Conditions: 30 min pre incubation ±NADPH relative to direct inhibition IC50 with no pre-incubation. The text has this: (§2) Compounds of the present invention have no time dependent CYP inhibition.
For data set [6], the system named is phospho-cdc2 (Tyr15) in HT-29 cells. Nature of the data set: Effect on phosphorylation of cdc2 at Tyr15 in HT-29 cells (PathScan ELISA). Type of data set: cell-based. Conditions: Homo sapiens, HT-29, 8 h; HT29 cells, eight hours incubation; read-out: HT29 pCDC2 activity. Here is the method:
Method 2: Determining the effect of compounds on the phosphorylation of cdc2 at Tyr15
The colorectal cancer cell lines HT-29 and HCT-116 were purchased from the ATCC and routinely maintained in McCoy's Medium (Invitrogen) supplemented with 10% Foetal Calf Serum.
The cells were trypsinised from their growing vessel and counted, 100 μL of cell suspension containing 6000 cells was pipetted into black 96 well Co-star plates and incubated overnight to allow adherence to the surface at a temperature of 37° C. and an atmosphere of 5% CO2. Test compounds were formulated in DMSO and diluted in foetal calf serum supplemented medium. Incubating medium was removed by aspiration and diluted drug supplemented medium added to each well.
The plate was returned to the incubator for an additional eight hours at 37° C. and an atmosphere of 5% CO2. Post incubation, the drug supplemented medium was aspirated from each well and the cells were washed once in ice-cold phosphate buffered saline (PBS). 100 μL of cell lysis buffer (Cell Signalling Technologies #9803) containing 20 mM Tris, 150 mM NaCl, 1 mM EDTA, 1 mM EGTA, 1% Triton-X100, 2.5 mM sodium pyrophosphate, 1 mM glycerophosphate, 1 mM Na3VO4 and 1 μg/mL leupeptin was added to each well of the 96 well plate and incubated at 4° C. for 30 min. The samples on the plate were snap frozen at −80° C. until required.
Immediately before the continuation of the assay, the sample plate was thawed and centrifuged at 4° C. for 10 min and the supernatant transferred to secondary tubes or 96 well plate.
Cell supernatant was mixed in a ratio of 1:1 with sample dilutent buffer and vortexed for one minute. 100 μL of diluted sample was pipetted into pre-coated plates containing a rabbit polyclonal antibody for phospho-cdc2 (Tyr15) (Cell Signalling Technologies PathScan kit #7176). The plate was sealed and incubated overnight at 4° C.
The plate seal was removed and the well contents aspirated, followed by 3×5 min washes with 200 μL of diluted wash buffer. Between each wash the plate was tapped firmly onto blotting paper to ensure the removal of all kit solution. 100 μL of kit detection antibody was added to each well and the plate re-sealed and incubated at 37° C. for 1 h. Post incubation the plate was washed and processed in a similar manner to that previously described.
100 μL of horseradish peroxidise-linked secondary antibody was added to each test well, the plate sealed and incubated for thirty minutes at 37° C. Post incubation, the plate was washed as previously stated, followed by the addition of 100 μL of 3,3′,5,5′ tetramethylbenzidine (TMB reagent). The plate was sealed and incubated at RT for 30 min.
100 μL of stop solution was added to each well and the underside of the plate wiped with a lint-free tissue, prior to spectrophotometric determination. Absorbance from each well was read at 450 nm within 30 min of the addition of the stop solution.
The percentage of phospho-cdc2 was calculated compared to DMSO control and plotted versus the concentration of inhibitor using GraphPad Prism. Data was fitted using non-linear regression analysis and IC50 values generated.

In data set [7] the target is CYP3A4 (Homo sapiens (Human), UniProt P08684). The data set is described as follows: Time dependent CYP inhibition: CYP3A4. Type of data set: in vitro ADME. Conditions: 30 min pre incubation ±NADPH relative to direct inhibition IC50 with no pre-incubation.
Chain of CYP3A4 (P08684 whole entry): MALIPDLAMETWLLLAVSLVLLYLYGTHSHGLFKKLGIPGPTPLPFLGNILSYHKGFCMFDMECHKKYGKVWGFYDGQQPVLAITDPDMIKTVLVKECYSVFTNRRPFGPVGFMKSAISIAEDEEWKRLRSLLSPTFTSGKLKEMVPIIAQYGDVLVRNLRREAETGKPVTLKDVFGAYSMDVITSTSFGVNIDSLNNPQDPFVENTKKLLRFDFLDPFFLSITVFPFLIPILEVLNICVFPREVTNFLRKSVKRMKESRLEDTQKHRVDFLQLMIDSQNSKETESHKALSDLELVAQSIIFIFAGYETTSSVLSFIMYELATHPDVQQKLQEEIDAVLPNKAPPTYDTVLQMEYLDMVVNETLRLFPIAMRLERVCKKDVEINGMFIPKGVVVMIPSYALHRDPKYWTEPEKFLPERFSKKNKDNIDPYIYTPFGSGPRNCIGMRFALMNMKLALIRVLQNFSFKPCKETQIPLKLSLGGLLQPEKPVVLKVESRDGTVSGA
From the text: as §2

The target in data set [8] is CYP2C9 (Homo sapiens (Human), UniProt P11712). Nature of the data set: Time dependent CYP inhibition: CYP2C9. Type of data set: in vitro ADME. As to conditions: 30 min pre incubation ±NADPH relative to direct inhibition IC50 with no pre-incubation.
Chain of CYP2C9 (P11712 whole entry): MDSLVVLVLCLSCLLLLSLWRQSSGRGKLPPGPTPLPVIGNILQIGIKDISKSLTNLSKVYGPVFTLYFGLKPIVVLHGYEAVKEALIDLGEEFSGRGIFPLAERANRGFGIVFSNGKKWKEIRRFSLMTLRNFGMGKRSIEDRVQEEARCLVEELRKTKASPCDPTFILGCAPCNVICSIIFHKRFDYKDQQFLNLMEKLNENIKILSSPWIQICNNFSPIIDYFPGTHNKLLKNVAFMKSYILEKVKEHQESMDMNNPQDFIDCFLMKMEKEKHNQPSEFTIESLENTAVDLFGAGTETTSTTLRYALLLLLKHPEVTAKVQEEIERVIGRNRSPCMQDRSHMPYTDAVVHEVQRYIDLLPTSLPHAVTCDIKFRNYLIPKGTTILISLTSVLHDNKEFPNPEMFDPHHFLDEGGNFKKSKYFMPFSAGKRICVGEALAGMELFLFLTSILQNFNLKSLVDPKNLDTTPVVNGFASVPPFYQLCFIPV
From the text: as §2

In data set [9] the target is Wee-1 kinase (Homo sapiens (Human), UniProt P30291). The data set is described as follows: Measurement of Wee-1 kinase activity (ADP-Glo). Conditions: read-out: Wee-1 IC50 activity. The format is biochemical. Here is the method:
Method 1: Measurement of Wee-1 kinase activity
In the measurement of Wee-1 activity, a commercial peptide Poly(Lys Tyr(4:1)) hydrobromide was purchased from Sigma Aldrich and used as the substrate. Activated Wee-1 kinase was purchased from Invitrogen (PV3817) and an ADP-Glo luminescent kit was purchased from Promega.
All reactions took place in […] volumes in reaction buffer containing 40 mM Tris-HCl and 20 mM magnesium chloride, supplemented with 0.1 mg/mL bovine serum albumin and 2 mM DTT. Compounds were serially diluted in buffer and 5 μL of each concentration pipetted into a white 384 well plate (Sigma Aldrich M6186). A 5 μL aliquot of the Wee-1 enzyme was added to each well and the plate centrifuged for 1 min to ensure mixing of the enzyme and inhibitor.
The plate was incubated at room temperature for 30 minutes before the addition of 2.0 μg/mL of substrate and 30 μM ATP in a 5 μL aliquot. The plate was centrifuged for one minute and incubated for 1 h at RT.
15 μL of ADP-Glo stop reagent was added to each well to quench the reaction and deplete unconverted ATP. The plate was incubated for a further 40 min in the dark at RT.
30 μL of ADP-Glo kinase detection reagent was added to each well, converting ADP to ATP, catalysing the generation of luciferin by luciferase. The plate was shaken for 1 min, and incubated in the dark for an additional hour.
Luminescence from each well was detected using the Biotek Synergy4 HD plate reader and the percentage inhibition of kinase activity calculated for each inhibitor tested. Positive (kinase only) and negative (no kinase) controls were added to each plate to ensure specific interaction of kinase and inhibitor. The IC50 concentration for each inhibitor was calculated by plotting the percentage kinase inhibition against concentration of inhibitor and the curve generated by non-linear regression fitting.
A general note: ADP-Glo turns the ADP formed in a reaction into a luminescent signal.

Data set [10] in a line: Rat hepatocyte assay CLint. The format is in vitro ADME. As to conditions: hepatocytes. Here is the method: as §1
The target of data set [11] is CYP2C19 (Homo sapiens (Human), UniProt P33261). The data set is described as follows: Time dependent CYP inhibition: CYP2C19. The format is in vitro ADME. As to conditions: 30 min pre incubation ±NADPH relative to direct inhibition IC50 with no pre-incubation.
Chain of CYP2C19 (P33261 whole entry): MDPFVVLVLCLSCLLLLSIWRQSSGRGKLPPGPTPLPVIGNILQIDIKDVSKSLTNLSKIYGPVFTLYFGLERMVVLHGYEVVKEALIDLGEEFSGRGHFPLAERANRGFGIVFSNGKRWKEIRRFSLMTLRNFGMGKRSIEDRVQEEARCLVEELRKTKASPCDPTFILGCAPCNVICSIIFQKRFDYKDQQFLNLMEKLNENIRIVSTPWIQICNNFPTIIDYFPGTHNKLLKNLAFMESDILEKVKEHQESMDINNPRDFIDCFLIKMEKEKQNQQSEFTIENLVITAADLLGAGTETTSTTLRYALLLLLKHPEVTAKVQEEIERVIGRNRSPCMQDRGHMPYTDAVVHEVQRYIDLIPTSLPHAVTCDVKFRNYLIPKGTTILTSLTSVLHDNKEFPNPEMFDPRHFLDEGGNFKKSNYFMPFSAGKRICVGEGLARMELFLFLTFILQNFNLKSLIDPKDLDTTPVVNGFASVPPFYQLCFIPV
From the text: as §2

Chain of Wee-1 kinase (P30291 whole entry): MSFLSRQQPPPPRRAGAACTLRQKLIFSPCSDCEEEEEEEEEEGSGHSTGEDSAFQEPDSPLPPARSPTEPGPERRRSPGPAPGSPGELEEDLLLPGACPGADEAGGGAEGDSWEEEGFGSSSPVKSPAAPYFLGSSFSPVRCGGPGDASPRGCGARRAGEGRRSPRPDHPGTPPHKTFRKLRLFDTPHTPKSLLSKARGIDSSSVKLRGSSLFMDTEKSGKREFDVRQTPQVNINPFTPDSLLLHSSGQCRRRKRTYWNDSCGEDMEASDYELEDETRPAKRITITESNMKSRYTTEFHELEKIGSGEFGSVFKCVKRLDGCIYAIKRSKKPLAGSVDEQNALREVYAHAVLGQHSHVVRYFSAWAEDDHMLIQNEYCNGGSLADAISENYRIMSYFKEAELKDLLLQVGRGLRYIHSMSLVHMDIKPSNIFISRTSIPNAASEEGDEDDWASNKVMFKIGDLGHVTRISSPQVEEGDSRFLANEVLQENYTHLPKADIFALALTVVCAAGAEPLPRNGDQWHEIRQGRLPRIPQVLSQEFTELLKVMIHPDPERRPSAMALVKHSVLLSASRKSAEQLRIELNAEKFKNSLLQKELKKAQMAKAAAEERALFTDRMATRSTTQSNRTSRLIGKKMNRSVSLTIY
Chain of CYP2D6 (P10635 whole entry): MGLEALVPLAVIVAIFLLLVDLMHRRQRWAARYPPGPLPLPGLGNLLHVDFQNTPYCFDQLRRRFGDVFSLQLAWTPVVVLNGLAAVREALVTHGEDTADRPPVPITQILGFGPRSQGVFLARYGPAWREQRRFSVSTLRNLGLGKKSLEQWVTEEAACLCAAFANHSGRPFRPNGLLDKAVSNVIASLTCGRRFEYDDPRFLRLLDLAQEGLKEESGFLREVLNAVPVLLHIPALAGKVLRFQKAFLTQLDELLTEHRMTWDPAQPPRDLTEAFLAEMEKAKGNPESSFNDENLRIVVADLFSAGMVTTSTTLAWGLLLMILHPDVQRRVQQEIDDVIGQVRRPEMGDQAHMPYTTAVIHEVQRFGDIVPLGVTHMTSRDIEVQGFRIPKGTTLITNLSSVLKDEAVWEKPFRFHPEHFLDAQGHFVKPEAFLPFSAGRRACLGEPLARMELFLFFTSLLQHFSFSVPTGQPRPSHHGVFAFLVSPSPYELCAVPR
Chain of human ether a go-go related gene (hERG) K+ channel (Q12809 whole entry): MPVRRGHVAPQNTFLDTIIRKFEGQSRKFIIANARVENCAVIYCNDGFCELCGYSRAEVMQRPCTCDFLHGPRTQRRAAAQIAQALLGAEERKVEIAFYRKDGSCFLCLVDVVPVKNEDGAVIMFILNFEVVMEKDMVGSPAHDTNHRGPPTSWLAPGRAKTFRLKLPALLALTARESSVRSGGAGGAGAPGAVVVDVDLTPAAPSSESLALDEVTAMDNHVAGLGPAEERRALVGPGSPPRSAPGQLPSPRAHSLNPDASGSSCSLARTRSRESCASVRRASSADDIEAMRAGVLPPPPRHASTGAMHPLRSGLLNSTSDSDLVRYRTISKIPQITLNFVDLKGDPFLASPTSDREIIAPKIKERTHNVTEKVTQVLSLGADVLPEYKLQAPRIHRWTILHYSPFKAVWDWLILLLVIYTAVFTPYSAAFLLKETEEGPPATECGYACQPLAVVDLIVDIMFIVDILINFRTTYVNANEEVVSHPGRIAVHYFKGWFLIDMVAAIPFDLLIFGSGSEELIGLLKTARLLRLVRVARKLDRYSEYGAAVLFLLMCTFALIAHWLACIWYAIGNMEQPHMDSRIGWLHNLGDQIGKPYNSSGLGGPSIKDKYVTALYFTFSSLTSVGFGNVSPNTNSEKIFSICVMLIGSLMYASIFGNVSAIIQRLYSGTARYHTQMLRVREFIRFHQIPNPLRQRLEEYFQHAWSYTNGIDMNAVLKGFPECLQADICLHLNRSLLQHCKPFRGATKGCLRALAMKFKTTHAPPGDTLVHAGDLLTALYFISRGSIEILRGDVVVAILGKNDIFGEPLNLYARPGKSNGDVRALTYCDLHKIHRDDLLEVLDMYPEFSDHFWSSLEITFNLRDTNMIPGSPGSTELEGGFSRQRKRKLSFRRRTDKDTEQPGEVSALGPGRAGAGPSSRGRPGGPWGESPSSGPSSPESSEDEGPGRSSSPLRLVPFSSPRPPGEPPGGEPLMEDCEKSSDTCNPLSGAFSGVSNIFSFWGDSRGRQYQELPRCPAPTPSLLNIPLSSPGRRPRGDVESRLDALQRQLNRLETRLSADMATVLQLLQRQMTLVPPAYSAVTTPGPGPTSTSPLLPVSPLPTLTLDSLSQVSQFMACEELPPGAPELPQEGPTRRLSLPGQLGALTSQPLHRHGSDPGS

As usually defined, the bioavailability is the share of a dose that reaches the circulation, judged against a reference dose that is usually intravenous. Higher therefore signals much systemic uptake. The term hepatocyte CLint denotes a measure of how fast metabolising enzymes remove a compound, apart from limits set by blood flow. Read a high hepatocyte CLint as rapid turnover. For `CNCc1cc(Nc2ncc3c(=O)n(-c4c(Cl)cccc4Cl)ccc3n2)ccc1N1CCOCC1` [Example 20, 6-(2,6-Dichlorophenyl)-2-((3-((methylamino)methyl)-4-morpholinophenyl)amino)pyrido[4,3-d]pyrimidin-5(6H)-one], the microsomal CLint at 1 μM in data set [1] is no more than 20 µL/min/mg. Besides, in data set [2], the bioavailability was greater than 25%. The figures for the hepatocyte CLint in data set [3] and in data set [10] were less than 20 µL/min/1e6 cells and less than 40 µL/min/1e6 cells, respectively. The results for the IC50 in data set [4], in data set [6] and in [9] were no less than 10 µM, no more than 100 nM and less than 10 nM, respectively. Besides, in data set [5], the “time dependent inhibition of CYP2D6: shift in IC50” value is recorded as less than 2 fold. The “time dependent inhibition of CYP3A4: shift in IC50” value in [7] was less than 2 fold. Also, the “time dependent inhibition of CYP2C9: shift in IC50” value in data set [8] is reported as less than 2 fold. The “time dependent inhibition of CYP2C19: shift in IC50” value in [11] is recorded as less than 2 fold.
For `COc1cc(Nc2ncc3c(=O)n(-c4c(Cl)cccc4Cl)ccc3n2)ccc1N1CCNCC1` [Example 13, 6-(2,6-Dichlorophenyl)-2-((3-methoxy-4-(piperazin-1-yl)phenyl)amino)pyrido[4,3-d]pyrimidin-5(6H)-one, HCl], the microsomal CLint at 1 μM in data set [1] was no more than 20 µL/min/mg. The compound also showed a bioavailability in data set [2] greater than 25%. Further, the intrinsic metabolic clearance (hepatocyte CLint) in data set [3] is less than 20 µL/min/1e6 cells; in [10], less than 40 µL/min/1e6 cells. Moreover, the figures for the IC50 in data set [4], in data set [6] and in data set [9] were no less than 10 µM, no more than 100 nM and less than 10 nM, respectively. In addition, in [5], the “time dependent inhibition of CYP2D6: shift in IC50” value was less than 2 fold. The “time dependent inhibition of CYP3A4: shift in IC50” value in data set [7] was less than 2 fold. The “time dependent inhibition of CYP2C9: shift in IC50” value in [8] is listed as less than 2 fold. In data set [11], the “time dependent inhibition of CYP2C19: shift in IC50” value is recorded as less than 2 fold.

(Values after patent US9714244B2, “Substituted pyrido[4,3-d]pyrimidines as Wee-1 inhibitors” (ALMAC DISCOVERY LIMITED, priority 2013, dated 2017).)
